Test results published in US20100298340A1, “Thiazol-Guanidine Derivatives Useful As A (Beta)-Related Pathologies” (AstraZeneca AB, priority 2006, published 2010).

Biological target: T1, human β-Secretase (Homo sapiens, UniProt P56817)
T1 construct: The soluble part of the human β-Secretase (AA 1-AA 460) was cloned; Fc domain of IgG1 (C); made in house
Assay: TR-FRET Assay
Format: biochemical
Description: The enzyme used in the IGEN Cleavage-, Fluorescent-, TR-FRET- and the BiaCore assay is described as follows:
The soluble part of the human β-Secretase (AA 1-AA 460) was cloned into the ASP2-Fc10-1-IRES-GFP-neoK mammalian expression vector. The gene was fused to the Fc domain of IgG1 (affinity tag) and stably cloned into HEK 293 cells. Purified sBACE-Fc is stored in Tris buffer, pH 9.2 and has a purity of 95%.
Dilute the enzyme (truncated form) to 6 μg/mL (stock 1.3 mg/mL) and the substrate (Europium)CEVNLDAEFK(Qsy7) to 200 nM (stock 60 μM) in reaction buffer (NaAcetate, chaps, triton x-100, EDTA pH4.5). The Biomek FX is used for all liquid handling and the enzyme and substrate solutions are kept on ice until they are placed in Biomek FX. Enzyme (9 μl) is added to the plate then 1 μl of compound in dimethylsulphoxide is added, mixed and pre-incubated for 10 minutes. Substrate (10 μl) is then added, mixed and the reaction proceeds in the dark for 15 minutes at room temperature. The reaction is stopped with the addition of Stop solution ([…] pH 9). The fluorescence of the product is measured on a Victor II plate reader with an excitation wavelength of 340 nm and an emission wavelength of 615 nm. The assay is done in a Costar 384 well round bottom, low volume, non-binding surface (Corning #3676). The final concentration of the enzyme is 0.3 nM; the final concentration of substrate is 100 nM (Km of ˜250 nM). The dimethylsulphoxide control defines the 100% activity level and 0% activity is defined by only addition of the peptide substrate.

T1 sequence (P56817 22-460): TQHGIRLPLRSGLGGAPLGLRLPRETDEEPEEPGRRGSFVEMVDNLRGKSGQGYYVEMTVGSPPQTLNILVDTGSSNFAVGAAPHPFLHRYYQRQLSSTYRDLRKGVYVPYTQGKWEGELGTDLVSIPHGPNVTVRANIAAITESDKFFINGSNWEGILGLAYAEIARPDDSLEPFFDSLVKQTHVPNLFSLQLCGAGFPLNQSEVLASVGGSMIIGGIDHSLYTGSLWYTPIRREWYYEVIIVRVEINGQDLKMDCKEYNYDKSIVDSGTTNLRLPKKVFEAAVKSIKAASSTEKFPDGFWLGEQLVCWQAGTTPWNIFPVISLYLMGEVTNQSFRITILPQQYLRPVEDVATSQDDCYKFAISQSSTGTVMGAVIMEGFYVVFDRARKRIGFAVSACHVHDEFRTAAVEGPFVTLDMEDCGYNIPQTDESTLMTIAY

Row | IC50 | Compound
1 | 5.01 µM | CCc1nc(NC(=N)N)sc1-c1ccc(NCC2CCN(C(=O)OCc3ccccc3)CC2)cc1 [Example 20, Benzyl 4-({[4-(2-{[amino(imino)methyl]amino}-4-ethyl-1,3-thiazol-5-yl)phenyl]amino}methyl)piperidine-1-carboxylate]
2 | 4.47 µM | Cc1nc(NC(=N)N)sc1-c1cccc(NC(=O)c2ccc(-c3csnn3)cc2)c1 [Example 17, N-[3-(2-{[Amino(imino)methyl]amino}-4-methyl-1,3-thiazol-5-yl)phenyl]-4-(1,2,3-thiadiazol-4-yl)benzamide]
3 | 6.03 µM | CCc1ccc2c(Cl)c(C(=O)Nc3cccc(-c4sc(NC(=N)N)nc4C)c3)sc2c1 [Example 18, N-[3-(2-{[Amino(imino)methyl]amino}-4-methyl-1,3-thiazol-5-yl)phenyl]-3-chloro-6-ethyl-1-benzothiophene-2-carboxamide]
